Source: paper PMC12655637, “Design, Synthesis, and Mechanistic Study of Novel Ciprofloxacin/Thiazole Chalcone Hybrids as Potential Anticancer Agents” (Pharmaceuticals, 2025)

Experiments:
Test in all cases: NCI-60 screening, one-dose (10 µM) and five-dose, SRB
T-47D = type: cell-based, human; conditions: five-dose
HCT-15 = type: cell-based, human
SK-OV-3 = type: cell-based, human
SN12C = type: cell-based, human
OVCAR-5 = type: cell-based, human; conditions: five-dose, OVCAR-5
A549/ATCC = type: cell-based, human
KM12 = type: cell-based, human; conditions: five-dose, KM12
ACHN = type: cell-based, human
NCI-H226 = type: cell-based, human
BT-549 = type: cell-based
HS 578T = type: cell-based, human
NCI/ADR-RES = type: cell-based, human
MDA-MB231/ATCC = type: cell-based
NCI-H522 = type: cell-based, human
TK-10 = type: cell-based, human
[1] = Homo sapiens, five-dose, HCT-15
[2] = Homo sapiens, five-dose, SK-OV-3
[3] = Homo sapiens, 10 μM, Renal Cancer, read-out: Growth percentage
[4] = Homo sapiens, five-dose, read-out: LC50 (the source's name)
[5] = Homo sapiens, five-dose, NCI-H226
[6] = Homo sapiens, five-dose, BT-549
[7] = Homo sapiens, five-dose, NCI-H522

Q: How did the GI50 (T-47D; Homo sapiens, T47D) turn out when Cc1nc(SCC(=O)N2CCN(c3cc4c(cc3F)c(=O)c(C(=O)O)cn4C3CC3)CC2)sc1C(=O)/C=C/c1cccc(F)c1 [Compound 4d, (E)-1-Cyclopropyl-6-fluoro-7-(4-(2-((5-(3-(3-fluorophenyl)acryloyl)-4-methylthiazol-2-yl)thio)acetyl)piperazin-1-yl)-4-oxo-1,4-dihydroquinoline-3-carboxylic Acid] was run?
A: The GI50 was greater than 100 µM.

Q: And the IC50 (T-47D; Homo sapiens, T47D)?
A: The IC50 was greater than 100 µM.

Q: And the CC50 (T-47D; Homo sapiens, T47D, read-out: LC50 (the source's name))?
A: The CC50 was greater than 100 µM.

Q: And the TGI (T-47D)?
A: Its TGI is 77.6 µM.

Q: What about the activity at 10 µM (HCT-15; Homo sapiens, 10 μM, HCT-15, Colon Cancer, read-out: Growth percentage) of the same compound?
A: The activity at 10 µM was -41.7%.

Q: And the GI50 (HCT-15; [1])?
A: The GI50 was 33.9 µM.

Q: And the IC50 (HCT-15; [1])?
A: The IC50 was 53.7 µM.

Q: What about the LC50 (50% lethal concentration) (HCT-15; [1]) of the same compound?
A: The LC50 (50% lethal concentration) was greater than 100 µM.

Q: What about the TGI (HCT-15; five-dose, HCT-15) of the same compound?
A: Its TGI is 100.0 µM.

Q: What about the activity at 10 µM (SK-OV-3; Homo sapiens, 10 μM, SK-OV-3, Ovarian Cancer, read-out: Growth percentage) of the same compound?
A: The activity at 10 µM was 5%.

Q: What about the GI50 (SK-OV-3; [2]) of the same compound?
A: Its GI50 is greater than 100 µM.

Q: And the IC50 (SK-OV-3; [2])?
A: Its IC50 is greater than 100 µM.

Q: What about the CC50 (SK-OV-3; Homo sapiens, five-dose, SK-OV-3, read-out: LC50 (the source's name)) of the same compound?
A: Its CC50 is greater than 100 µM.

Q: What about the TGI (SK-OV-3; five-dose, SK-OV-3) of the same compound?
A: Its TGI is 100.0 µM.

Q: And the activity at 10 µM (SN12C; [3])?
A: Its activity at 10 µM is 27.7%.

Q: And the GI50 (SN12C; Homo sapiens, five-dose)?
A: Its GI50 is greater than 100 µM.

Q: What about the IC50 (SN12C; Homo sapiens, five-dose) of the same compound?
A: Its IC50 is greater than 100 µM.

Q: What about the CC50 (SN12C; [4]) of the same compound?
A: The CC50 was greater than 100 µM.

Q: And the TGI (SN12C; five-dose)?
A: Its TGI is 100.0 µM.

Q: What about the GI50 (OVCAR-5; Homo sapiens) of the same compound?
A: Its GI50 is greater than 100 µM.

Q: And the IC50 (OVCAR-5; Homo sapiens)?
A: The IC50 was greater than 100 µM.

Q: What about the CC50 (OVCAR-5; Homo sapiens, read-out: LC50 (the source's name)) of the same compound?
A: Its CC50 is greater than 100 µM.

Q: What about the TGI (OVCAR-5) of the same compound?
A: Its TGI is 100.0 µM.

Q: And the activity at 10 µM (A549/ATCC; Homo sapiens, 10 μM, Non-Small-Cell Lung Cancer, read-out: Growth percentage)?
A: The activity at 10 µM was 65.8%.

Q: And the GI50 (A549/ATCC; Homo sapiens, five-dose)?
A: Its GI50 is greater than 100 µM.

Q: What about the IC50 (A549/ATCC; Homo sapiens, five-dose) of the same compound?
A: Its IC50 is greater than 100 µM.

Q: And the CC50 (A549/ATCC; [4])?
A: Its CC50 is greater than 100 µM.

Q: What about the TGI (A549/ATCC; five-dose) of the same compound?
A: The TGI was 7.94 µM.

Q: And the GI50 (KM12; Homo sapiens)?
A: The GI50 was 0.52 µM.

Q: What about the IC50 (KM12; Homo sapiens) of the same compound?
A: The IC50 was 0.69 µM.

Q: What about the LC50 (KM12; Homo sapiens) of the same compound?
A: The LC50 was 6.92 µM.

Q: What about the TGI (KM12) of the same compound?
A: Its TGI is 97.7 µM.

Q: And the activity at 10 µM (ACHN; [3])?
A: Its activity at 10 µM is 94.4%.

Q: What about the GI50 (ACHN; Homo sapiens, five-dose) of the same compound?
A: Its GI50 is greater than 100 µM.

Q: And the IC50 (ACHN; Homo sapiens, five-dose)?
A: Its IC50 is greater than 100 µM.

Q: And the CC50 (ACHN; [4])?
A: Its CC50 is greater than 100 µM.

Q: And the TGI (ACHN; five-dose)?
A: Its TGI is 100.0 µM.

Q: What about the activity at 10 µM (NCI-H226; Homo sapiens, 10 μM, NCI-H226, Non-Small-Cell Lung Cancer, read-out: Growth percentage) of the same compound?
A: The activity at 10 µM was 70.9%.

Q: And the GI50 (NCI-H226; [5])?
A: Its GI50 is greater than 100 µM.

Q: And the IC50 (NCI-H226; [5])?
A: The IC50 was greater than 100 µM.

Q: What about the LC50 (concentration killing 50% of cells) (NCI-H226; [5]) of the same compound?
A: The LC50 (concentration killing 50% of cells) was greater than 100 µM.

Q: What about the TGI (NCI-H226; five-dose, NCI-H226) of the same compound?
A: The TGI was 100.0 µM.

Q: What about the activity at 10 µM (BT-549; Homo sapiens, 10 μM, BT-549, Breast Cancer, read-out: Growth percentage) of the same compound?
A: The activity at 10 µM was -88.5%.

Q: And the GI50 (BT-549; [6])?
A: Its GI50 is 5.4 µM.

Q: And the IC50 (BT-549; [6])?
A: Its IC50 is 25.7 µM.

Q: What about the CC50 (BT-549; Homo sapiens, five-dose, BT-549, read-out: LC50 (the source's name)) of the same compound?
A: The CC50 was greater than 100 µM.

Q: And the TGI (BT-549; five-dose, BT-549)?
A: Its TGI is 100.0 µM.

Q: And the activity at 10 µM (HS 578T; Homo sapiens, 10 μM, Breast Cancer, read-out: Growth percentage)?
A: The activity at 10 µM was 36.2%.

Q: What about the GI50 (HS 578T; Homo sapiens, five-dose) of the same compound?
A: The GI50 was greater than 100 µM.

Q: And the IC50 (HS 578T; Homo sapiens, five-dose)?
A: Its IC50 is greater than 100 µM.

Q: And the CC50 (HS 578T; [4])?
A: Its CC50 is greater than 100 µM.

Q: And the TGI (HS 578T; five-dose)?
A: The TGI was 28.2 µM.

Q: What about the activity at 10 µM (NCI/ADR-RES; Homo sapiens, 10 μM, Ovarian Cancer, read-out: Growth percentage) of the same compound?
A: The activity at 10 µM was 110%.

Q: And the GI50 (NCI/ADR-RES; Homo sapiens, five-dose)?
A: Its GI50 is greater than 100 µM.

Q: What about the IC50 (NCI/ADR-RES; Homo sapiens, five-dose) of the same compound?
A: The IC50 was greater than 100 µM.

Q: What about the CC50 (NCI/ADR-RES; [4]) of the same compound?
A: The CC50 was greater than 100 µM.

Q: And the TGI (NCI/ADR-RES; five-dose)?
A: Its TGI is 100.0 µM.

Q: What about the GI50 (MDA-MB231/ATCC; Homo sapiens, MDA-MB-231) of the same compound?
A: The GI50 was greater than 100 µM.

Q: What about the IC50 (MDA-MB231/ATCC; Homo sapiens, MDA-MB-231) of the same compound?
A: The IC50 was greater than 100 µM.

Q: And the CC50 (MDA-MB231/ATCC; Homo sapiens, five-dose, MDA-MB-231/ATCC, read-out: LC50 (the source's name))?
A: Its CC50 is greater than 100 µM.

Q: What about the TGI (MDA-MB231/ATCC; five-dose, MDA-MB-231/ATCC) of the same compound?
A: The TGI was 100.0 µM.

Q: And the activity at 10 µM (NCI-H522; Homo sapiens, 10 μM, NCI-H522, Non-Small-Cell Lung Cancer, read-out: Growth percentage)?
A: Its activity at 10 µM is 88.2%.

Q: And the GI50 (NCI-H522; [7])?
A: The GI50 was greater than 100 µM.

Q: And the IC50 (NCI-H522; [7])?
A: The IC50 was greater than 100 µM.

Q: And the LC50 (concentration killing 50% of cells) (NCI-H522; [7])?
A: The LC50 (concentration killing 50% of cells) was greater than 100 µM.

Q: And the TGI (NCI-H522; five-dose, NCI-H522)?
A: The TGI was 100.0 µM.

Q: And the activity at 10 µM (TK-10; Homo sapiens, 10 μM, TK-10, Renal Cancer, read-out: Growth percentage)?
A: Its activity at 10 µM is 97.5%.

Q: What about the GI50 (TK-10; Homo sapiens, five-dose, TK-10) of the same compound?
A: The GI50 was greater than 100 µM.

Q: And the IC50 (TK-10; Homo sapiens, five-dose, TK-10)?
A: The IC50 was greater than 100 µM.

Q: What about the CC50 (TK-10; Homo sapiens, five-dose, TK-10, read-out: LC50 (the source's name)) of the same compound?
A: Its CC50 is greater than 100 µM.

Q: And the TGI (TK-10; five-dose, TK-10)?
A: The TGI was 100.0 µM.
